Assay results as given in patent publication US7871981B2, “Inhibition of cell motility, angiogenesis, and metastasis” (The United States of America as represented by the …, priority 1999, dated 2011).

What was measured:
NIH 3T3 fibroblasts = assay: NIH 3T3 fibroblast migration, modified Boyden chamber; assay type: cell-based
Description: (§1) The migration assay of HUVE and HMEC-1 cells in modified Boyden chambers was adapted from previously described procedures (Murohara et al., Thromb. Vasc. Biol., 19: 1156-61 (1999), Malinda et al., FASEB J., 13: 53-62 (1999)). In brief, Biocoat Cell Environment control inserts (8 micron pore size; Becton Dickinson) were coated with 0.1% gelatin (Sigma) for at least 1 hour at 37° C. and air dried. Lower chambers contained 0.7 ml RPMI+0.1% BSA, to which 20 ng/ml HGF and/or 300 nM Grb2 inhibitors were added. Cells were pre-treated with the indicated concentrations of Grb2 inhibitors for 18-24 hours, trypsinized, washed twice in RPMI+0.1% BSA, added to upper chambers (5×10^4 cells/well) with or without inhibitors in a final volume of 0.5 ml, and incubated for 4 h at 37° C. Cells on the upper surface of each filter were removed with a cotton swab, while cells that had traversed to the bottom surface of the filter were fixed and stained using Diff-Quik (Dade Diagnostics) and counted using a 10× objective. Mean values from 4 randomly selected fields (1×1.4 mm) were calculated for each of triplicate wells per experimental condition. Shown in FIG. 6 is the ratio of growth factor-treated to control migrating cells designated on the y-axis as “Migration (Fold Increase)” or as the mean number of cells per optical field in FIGS. 8-11.
PDGF is implicated in different biological processes such vascular remodeling, wound healing and cancer (for reviews, see Bornfeldt et al., Ann N Y Acad. Sci., 766:416-30, 1995; Gendron, Surv. Ophthalmol., 44:184-5, 1999). Addition of 50 ng/ml PDGF-BB to NIH 3T3 fibroblasts incubated in a modified Boyden chamber results in a dramatic, 20-fold increase in cell migration. […] This observation opens a potential therapeutical use of the Grb2 inhibitor compounds in the treatment of diseases such as cancer, wound healing disorders, vascular complications of diabetes mellitus, vascular nephropathies, and diseases with occurrence of fibrosis.

MDCK cells = assay: Extracellular matrix invasion assay, MDCK cells in collagen gels; assay type: cell-based, canine; settings: HGF 10 ng/ml, peptide 100 nM, 5 days
Description: MDCK cell invasion into three-dimensional collagen gels was analyzed as previously described. Briefly, type I collagen (1.5 mg/ml; Cohesion Technologies) was mixed with 10×MEM and sodium bicarbonate (11.76 mg/ml) at a ratio of 8:1:1 (vol:vol:vol) on ice, and 0.4 ml aliquots were dispensed into 16-mm tissue culture wells (Nunc), and allowed to gel at 37° C. for 20 min. Cells were seeded onto gels (1×10^4 cells/well) in 0.4 ml of growth medium containing HGF and/or peptides 1 or 4 as indicated. After 5 days, cells were fixed in situ in 2.5% glutaraldehyde in 0.1 M sodium cacodylate buffer (pH 7.4), and cells that had invaded the gel below the surface monolayer in ten randomly selected fields (1×1.4 mm) were counted microscopically using a 20× phase contrast objective. Depth of cellular invasion into the collagen gel was quantitated in the same ten fields per treatment group using a calibrated fine focusing micrometer. Values were compared using the Student's unpaired t-test and a significant value was taken as P<0.001. Results in Table 1 are shown as the mean number of invading cells/field or mean invasion depth/cell in microns+standard error of the mean.
MDCK cells were left untreated (Control), treated with HGF (10 ng/ml), or HGF+peptide 2 or 4 (100 nM), and invasion into collagen matrices was quantitated microscopically as described above. Values are the mean of at least 10 randomly selected fields±standard error of the mean. Epithelial Tube Formation Assay

PC3M cells = assay: Growth rate and viability in culture of C-90 treated PC3M cells; assay type: cell-based, human; settings: treated 24 h, three week study period
HMEC-1 cells = assay: HMEC-1 cell migration, modified Boyden chamber; assay type: cell-based, human; settings: VEGF
Description: as §1

Q: For `NC(=O)C[C@H](NC(=O)C1(NC(=O)[C@H](Cc2ccc(C(C(=O)O)C(=O)O)cc2)NC(=O)C(=O)O)CCCCC1)C(=O)NCCCc1cccc2ccccc12` [peptide 2, (N-oxalyl-4-malonyl)-Phe-Ac6c-Asn-NH-(3-naphthalen-1-yl-propyl)], which “PDGF-BB-induced NIH 3T3 cell migration” value (NIH 3T3 fibroblasts; co-added with PDGF-BB 50 ng/ml) is on record?
A: Its value is “inhibits NIH 3T3 cell migration in a significant (p<0.001), dose-dependent manner”.

Q: What about the “reduction in the mean number of cells per field” value (NIH 3T3 fibroblasts; peptide 30 nM, PDGF-BB 50 ng/ml) of the same compound?
A: Its value is 60%.

Q: What about the “Mean Invading Cells/Field” value (MDCK cells) of the same compound?
A: The value was 12.6 ± 1.9.

Q: And the “Mean Invasion Depth/Cell” value (MDCK cells)?
A: Its value is 17.9 ± 1.9 μm.

Q: What about the “growth rate and viability in culture” value (PC3M cells) of the same compound?
A: The value was “identical growth rate and viability as untreated cells”.

Q: And the VEGF-induced cell migration (HMEC-1 cells)?
A: Its VEGF-induced cell migration is “significantly (p<0.001) reverted”.
